Assay results from PMC7127853 (Bioorganic & Medicinal Chemistry, 2011).

Experiments:
[1] = system: human embryonic lung (HEL) fibroblasts; experiment: Cytotoxicity, cell morphology; assay type: cell-based; conditions: HEL cells; minimum cytotoxic concentration altering cell morphology
HIV-1 (IIIB) = experiment: Anti-HIV-1 assay in CEM cells; assay type: cell-based, human immunodeficiency virus type 1; conditions: compared with HDP–PMEA of ref [12]
[2] = system: Madin Darby canine kidney cells (MDCK); experiment: Cytotoxicity, cell morphology; assay type: cell-based
Reovirus-1 = experiment: Antiviral assay, Reovirus-1 in Vero cells; assay type: cell-based; conditions: read-out: Antiviral activity: EC50 Reovirus-1 (Vero)
[3] = system: human cytomegalovirus (HCMV) strain AD-169; experiment: Antiviral assay, HCMV AD-169 in HEL cells; assay type: cell-based; conditions: compared with TDP/HDP (S)-HPMPC of ref [11]
[4] = system: African green monkey cells (Vero); experiment: Cytotoxicity, cell morphology; assay type: cell-based

Row | SMILES | Cytotoxicity Cell morphology (MCC) (HEL) [1] [μM] | Cytotoxicity Cell morphology (MCC) MDCK [2] [μM] | EC50 (Reovirus-1) [µM] | also measured
1 | Nc1nc(O)c2ncn(COC(CO)CO)c2n1 [Ganciclovir] | >392 |  |  | 
2 | CCOCCOCCOCCOCCOCCOCCOP(=O)(O)COCCn1cnc2c(N)ncnc21 [Compound 12, 3,6,9,12,15,18-Hexaoxaeicosyl ester of 9-[2-(phosphonomethoxy)ethyl]adenine] |  |  |  | Loss of anti-HIV activity compared to HDP–PMEA (HIV-1 (IIIB)): > 10^7 fold
3 | O=c1[nH]c(=O)n([C@H]2C[C@H](O)[C@@H](CO)O2)cc1/C=C/Br [Brivudin] | >150 |  |  | 
4 | CCOC(=O)C1=C[C@@H](OC(CC)CC)[C@H](NC(C)=O)[C@@H](N)C1 [Oseltamivir] |  | >100 |  | 
5 | NC(=O)c1ncn([C@@H]2O[C@H](CO)[C@@H](O)[C@H]2O)n1 [Ribavirin, reference compound] |  | >100 | ≥ 174 | 
6 | Nc1ccn(C[C@@H](CO)OCP(=O)(O)OCCOCCOCCOCCOCCOCCO)c(=O)n1 [Compound 16, 14-Hydroxy-3,6,9,12-tetraoxaheptadecyl ester of (S)-1-[3-hydroxy-2-(phophonomethoxy)propyl]cytosine] |  |  |  | Drop of activity against CMV versus analogous simple alkoxyalkyl ester [3]: 400- to 1000 fold
7 | Nc1ncnc2c1ncn2CCOCP(=O)(OCCCCCCCCCCO)OCCCCCCCCCCO [Compound 5, Bis(10-Hydroxydecyl) ester of 9-[2-(phosphonomethoxy)ethyl]adenine] |  |  | > 34 | 
8 | Nc1ncnc2c1ncn2CCOCP(=O)(OCCOCCCCCCCCCCO)OCCOCCCCCCCCCCO [Compound 9, Bis{2-[(10-Hydroxydecyl)oxy]ethyl} ester of 9-[2-(phosphonomethoxy)ethyl]adenine] | 148 | 29.7 | > 29.7 | Cytotoxicity Cell morphology (MCC) Vero [4]: 148 μM
9 | Nc1nc2c(ncn2COCCO)c(=O)[nH]1 [Acyclovir] | >222 |  |  | 
10 | Nc1ccn(C[C@@H](CO)OCP(=O)(O)O)c(=O)n1.O.O [(S)-HPMPC, Cidofovir] | >317 |  |  | 
